pEC50, pIC50: −log10 of the molar value. Like-named read-outs stand apart in the source and are kept apart here.
How the values were obtained:
[1] = tested on: human beta-coronavirus OC43; experiment: OC43 coronavirus assay in HeLa cells (cytopathic effect, cell-titer-glo); format: cell-based
human cathepsin L = target: T1, human cathepsin L (Homo sapiens, UniProt P07711); experiment: Cathepsin L assay (Z-FR-AMC fluorescence); format: biochemical; settings: 10 pM human cathepsin L, 30 mins preincubation; class symbols
T1 construct: purchased R&D Systems
Method: For the cathepsin L assay, 10 pM of human cathepsin L (R&D Systems; Minneapolis, MN) was preincubated for 30 mins with test compounds. Reactions were initiated by the addition of a peptide substrate Z-FR-AMC (final concentration 2 μM, Anaspec; Fremont, CA). Fluorescence was measured at 2-minute intervals for 30 mins using a 355/460 excitation/emission filter module on an Envision plate reader (Perkin Elmer; Waltham, MA). The IC50 values were calculated for each assay by fitting the curves using a four-parameter equation in GraphPad Prism.

[2] = Cytotoxicity plates without OC43 virus in HeLa cells; format: cell-based; settings: human, HeLa cells (uninfected)
Method: The human beta-coronavirus OC43 was purchased from ATCC (Manassas, VA) and propagated using HCT-8 human colorectal epithelial cells (ATCC). HeLa human cervical epithelial cells (ATCC) were used as susceptible host cell lines and were cultured using EMEM media, supplemented with 10% fetal bovine serum (FBS), 1% (v/v) penicillin/streptomycin (P/S), 1% (v/v) HEPES and 1% (v/v) cellgro Glutagro™ supplement (all Corning, Manassas, VA) at 37° C. For the OC43 antiviral assay, 1.5×10^4 HeLa cells per well were plated in 100 μL complete media in white 96-well plates with clear bottoms at 37° C. for up to 24 h to facilitate attachment and allow cells to recover from seeding stresses. Next day, the cell culture medium was removed. Serially diluted compounds in 100 μL assay media (EMEM, 2% FBS, 1% P/S, 1% cellgro Glutagro™ supplement, 1% HEPES) were added to the cells and incubated for 4H at 37° C. in a humidified 5% CO2 incubator. 100 μL of OC43 virus stock was diluted to a concentration known to produce optimal cytopathic effect, inducing 80-90% reduction in cell viability. 96-well plates were incubated for 6 (HeLa) days at 33° C.; each plate contains uninfected control wells as well as virus-infected wells that were not treated with compound. Cytotoxicity plates without the addition of OC43 virus were carried out in parallel. At the end of the incubation period, 100 μL cell culture supernatant was replaced with 100 μL cell-titer-glo reagent (Promega, Madison, WI) and incubated for at least 10 min at rt prior to measuring luminescence. Luminescence was measured on a Perkin Elmer (Waltham, MA) Envision plate reader. Antiviral % inhibition was calculated as follows: [(Compound treated cells infected sample)−(no compound infected control)]/[(Uninfected control)−(no compound infected control)]*100; Using GraphPad (San Diego, CA) prism software version 8.3.1, the antiviral dose-response plot was generated as a sigmoidal fit, log(inhibitor) vs response-variable slope (four parameters) model and the EC50 was calculated which is the predicted compound concentration corresponding to a 50% inhibition of the viral cytopathic effect.

HRV3C = target: T2, HRV3C (Human rhinovirus 14, UniProt P03303); experiment: biochemical; settings: read-out: HRV IC50
T2 construct: SARS-Cov-2 3CLpro and HRV3C Duplex Assay

SARS-Cov-2 3CLpro = target: T3, SARS-Cov-2 3CLpro (Severe acute respiratory syndrome coronavirus 2, UniProt P0DTD1); experiment: SARS-Cov-2 3CLpro and HRV3C duplex assay (SAMDI-MS): 3CLpro; format: biochemical; settings: 3CLpro, duplex assay, 30 mins preincubation; class symbols; read-out: SARS-Cov-2 IC50
T3 construct: SARS-Cov-2 3CLpro and HRV3C Duplex Assay

[3] = tested on: SARS-CoV-2-GHB-03021/2020; experiment: microbe, parasite or virus in culture; format: cell-based; settings: Severe acute respiratory syndrome coronavirus 2, Vero C1008, 96 h; read-out: VeroE6 + CP (EC50)
[4] = Betacoronavirus 1, 144 h, OC43 in HeLa cells, 6 days at 33° C., class symbols, read-out: EC50
[5] = HRV3C, duplex assay, 30 mins preincubation, class symbols

T1 sequence (P07711 114-333): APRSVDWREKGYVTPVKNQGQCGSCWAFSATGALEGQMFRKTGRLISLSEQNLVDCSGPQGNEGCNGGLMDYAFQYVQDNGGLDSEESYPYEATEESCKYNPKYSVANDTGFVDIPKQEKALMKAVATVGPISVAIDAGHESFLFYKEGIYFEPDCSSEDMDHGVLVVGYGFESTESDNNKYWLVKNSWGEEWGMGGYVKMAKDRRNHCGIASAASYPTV
T2 sequence (P03303 1538-1719): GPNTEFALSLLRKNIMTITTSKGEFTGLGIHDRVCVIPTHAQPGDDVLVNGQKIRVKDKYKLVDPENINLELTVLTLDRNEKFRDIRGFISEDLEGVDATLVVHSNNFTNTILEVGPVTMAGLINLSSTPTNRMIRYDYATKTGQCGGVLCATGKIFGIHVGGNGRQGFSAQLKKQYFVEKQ

Row | Structure (SMILES) | pEC50 [1, 4] | pIC50 (human cathepsin L) | CC50 at 6 days ([2]; numeric bound, unit inferred) | pIC50 (HRV3C; [5]) | pIC50 (SARS-Cov-2 3CLpro) | pEC50 [3] | pIC50 (HRV3C) | CC50 at 6 days ([2]; class symbols) | pEC50 ([1]; Betacoronavirus 1, OC43, HeLa)
1 | Cc1sc(C(=O)N2CCC3(CC3)C[C@H]2C(=O)N[C@@H](C[C@@H]2CCNC2=O)C(=O)C(=O)NC2CC2)nc1-c1ccccc1 [Compound 38] | 6.00 to 7.00 | ≤ 5.00 | > 100000 nM | 4.70 to 5.70 | 5.70 to 6.70 | 5.00 to 6.00 |  |  | 
2 | CC(C)(C)c1csc(C(=O)N2CCC3(CC3)C[C@H]2C(=O)N[C@@H](C[C@@H]2CCNC2=O)C(=O)C(=O)NC2CC2)n1 [Compound 39] | 6.00 to 7.00 | 5.00 to 6.00 | > 100000 nM | 4.70 to 5.70 | 5.70 to 6.70 | 5.00 to 6.00 |  |  | 
3 | O=C(NC1CC1)C(=O)[C@H](C[C@@H]1CCNC1=O)NC(=O)[C@@H]1CC2(CCN1C(=O)c1csc(-c3ccccc3)n1)CC2 [Compound 40] | 6.00 to 7.00 | ≤ 5.00 | > 100000 nM | 5.70 to 6.70 | 5.70 to 6.70 | 5.00 to 6.00 |  |  | 
4 | O=C(NC1CC1)C(=O)[C@H](C[C@@H]1CCNC1=O)NC(=O)[C@@H]1CC2(CCN1C(=O)c1cccc(-c3ccccc3)n1)CC2 [Compound 41] | 6.00 to 7.00 | ≤ 5.00 | > 100000 nM | 5.70 to 6.70 | 5.70 to 6.70 | 5.00 to 6.00 |  |  | 
5 | COc1ccccc1-c1csc(C(=O)N2CCC3(CC3)C[C@H]2C(=O)N[C@@H](C[C@@H]2CCNC2=O)C(=O)C(=O)NC2CC2)n1 [Compound 42] | 6.00 to 7.00 | ≤ 5.00 | > 100000 nM |  | 5.70 to 6.70 | 5.00 to 6.00 | < 5.00 |  | 
6 | O=C(NC1CC1)C(=O)[C@H](C[C@@H]1CCNC1=O)NC(=O)[C@@H]1CC2(CCN1C(=O)c1nc(-c3ccccc3Cl)cs1)CC2 [Compound 43] | 6.00 to 7.00 | ≤ 5.00 | > 100000 nM |  | 5.70 to 6.70 | 5.00 to 6.00 | < 5.00 |  | 
7 | O=C(NC1CC1)C(=O)[C@H](C[C@@H]1CCNC1=O)NC(=O)[C@@H]1CC2(CCN1C(=O)c1nc(-c3ccc(Cl)cc3)cs1)CC2 [Compound 44] | 6.00 to 7.00 | ≤ 5.00 |  |  | 5.70 to 6.70 | 5.00 to 6.00 | < 5.00 | 10000 to 100000 nM | 
8 | O=C(NC1CC1)C(=O)[C@H](C[C@@H]1CCNC1=O)NC(=O)[C@@H]1CC2(CCN1C(=O)c1csc(-c3cccc(Cl)c3)n1)CC2 [Compound 45] | 6.00 to 7.00 | ≤ 5.00 |  | 4.70 to 5.70 | 6.70 to 7.70 | > 6.00 |  | 10000 to 100000 nM | 
9 | O=C(NC1CC1)C(=O)[C@H](C[C@@H]1CCNC1=O)NC(=O)[C@@H]1CC2(CCN1C(=O)c1nc(C3CCCCC3)cs1)CC2 [Compound 46] | 6.00 to 7.00 | 5.00 to 6.00 | > 100000 nM |  | 5.70 to 6.70 | 5.00 to 6.00 | < 5.00 |  | 
10 | O=C(NC1CC1)C(=O)[C@H](C[C@@H]1CCNC1=O)NC(=O)[C@@H]1CC2(CCN1C(=O)[C@@H]1C[C@@H]1c1ccccc1)CC2 [Compound 47] |  | ≤ 5.00 | > 100000 nM | 5.70 to 6.70 | 4.70 to 5.70 | < 4.30 |  |  | < 5.00
11 | O=C(NC1CC1)C(=O)[C@H](C[C@@H]1CCNC1=O)NC(=O)[C@@H]1CC2(CCN1C(=O)[C@@H]1C[C@H]1c1ccccc1)CC2 [Compound 48] | 6.00 to 7.00 | 5.00 to 6.00 | > 100000 nM | 5.70 to 6.70 | 6.70 to 7.70 | 5.00 to 6.00 |  |  | 

Source: patent US12065428B2, “Anti-viral compounds” (Aligos Therapeutics, Inc., priority 2021, dated 2024)
